One data set concerns S. aureus SA113. Nature of the data set: Biofilm formation on β-PGG/polyaniline-coated polystyrene wells (safranin staining). The class given is cell-based, Staphylococcus aureus. Particulars: polyaniline carrier, 24 hrs. As for the experimental part: β-PGG (stock conc.: 8.89 μg/mL in DMSO) in various amounts was evenly mixed with a fixed amount of polyaniline (40 μL, 3 mg/mL in DMSO) so as to provide a 100 μL β-PGG/polyaniline mixture with a final β-PGG concentration of 0.47 μM, 0.94 μM, 1.89 μM, 3.78 μM, 4.73 μM or 5.67 μM. The resultant β-PGG/polyaniline mixture was coated on the inner surfaces of the wells of 96-well polystyrene microtiter plates in an amount of 100 μL per well. After β-PGG coating, the plates were dried in a vacuum chamber, followed by UV sterilization for 30 min. An overnight culture of S. aureus SA113 was 200-fold diluted with TSBg, and a 200 μL aliquot of the diluted culture was seeded into each well of the β-PGG-coated microtiter plates. After culturing at 37° C. for 24 hrs, the wells were washed twice with PBS, and then examined by safranin staining according to a method described earlier (Christine Heilmann et al. (1996), Infect. Immun., 64 (1):277-282), so as to quantify the amount of biofilm formed on the β-PGG-coated polystyrene surface.

Data set [1] concerns human epithelial and fibroblast cells. Nature of the data set: Toxicity to human cells (summary statement). Particulars: concentrations below 50 μM. The format is cell-based. Here is the method:
Human HepG2 cells (ATCC HB-8065) and 293T cells (ATCC CRL-11268) were cultured in Dulbecco's modified Eagle's medium (DMEM) supplemented with 10% (v/v) fetal calf serum. Human MRC-5 cells (ATCC CCL171) and HEp-2 cells (ATCC CCL-23) were cultured in Eagle's minimum essential medium (MEM) supplemented with 10% fetal calf serum. These four human cell lines were seeded into 24-well polystyrene tissue culture plates at a cell density of 1×10^5 cells/500 μL medium per well, respectively. After incubation at 37° C. for 24 hrs, β-PGG was added into each well in various amounts (0, 6.25, 12.5, 25 and 50 μM). After 24 hr treatment of β-PGG, toxicity of β-PGG to these human cell lines was determined using the 3-(4,5-dimethylthiazol-2-yl)-2,5-diphenyltetrazolium bromide (MTT) method (Xiangshu Piao et al. (2008), supra). Additionally, toxicity of β-PGG to the 293T cells was also determined in medium containing 0% and 2% fetal calf serum. Cells treated with DMSO were used as a negative control.

“Also recorded” adds a separate entry of the source.

For `O=C(OC[C@H]1O[C@@H](OC(=O)c2cc(O)c(O)c(O)c2)[C@H](OC(=O)c2cc(O)c(O)c(O)c2)[C@@H](OC(=O)c2cc(O)c(O)c(O)c2)[C@@H]1OC(=O)c1cc(O)c(O)c(O)c1)c1cc(O)c(O)c(O)c1` [β-PGG, 1,2,3,4,6-penta-O-galloyl-β-D-glucopyranose], the “biofilm formation on coated polystyrene wells” value with S. aureus SA113 (coated with β-PGG at 1.9 μM or lower) is “slightly affected”. Further, the “decrease of the amount of biofilm on coated polystyrene wells” value with S. aureus SA113 (coated with β-PGG at a concentration higher than 3.8 μM) is on record as “more than 90%”. Besides, the “toxicity to human epithelial and fibroblast cells” value in data set [1] is “lacks toxicity; also recorded: not toxic”.

The values above are taken from patent US9181290B2, “Inhibition of biofilm formation by 1,2,3,4,6-penta-O-galloyl-D-glucopyranose” (CHANG GUNG UNIVERSITY, priority 2011, dated 2015).
